Test results: BigSolDB 2.1

O=C(O)/C=C/C(=O)O.OCCOCCN1CCN(C2=Nc3ccccc3Sc3ccccc32)CC1.OCCOCCN1CCN(C2=Nc3ccccc3Sc3ccccc32)CC1
solubility (mole fraction)
Details	283.15 K	288.15 K	293.15 K	298.15 K	303.15 K	308.15 K	313.15 K	318.15 K	323.15 K
in 2-butanone	0.000134	0.000164	0.000204	0.000251	0.000309	0.000382	0.000462	0.000581	0.000721
in MIBK	0.000128	0.000153	0.000181	0.000224	0.000273	0.000328	0.000398	0.000475	0.000571
in MTBE	4.36e-05	5.55e-05	6.74e-05	8.27e-05	0.000107	0.00013	0.000161	0.000192	0.000241
in THF	0.000705	0.000873	0.00108	0.00133	0.00167	0.00208	0.00261	0.00323	0.00409
in dichloromethane	0.000174	0.000213	0.000279	0.000365	0.00046	0.000597	0.000775	–	–
in ethyl formate	8.6e-05	0.000105	0.000125	0.000158	0.000197	0.00024	0.000291	0.000362	0.000445
in isopropyl acetate	3.95e-05	4.7e-05	5.77e-05	6.96e-05	8.3e-05	0.000104	0.000127	0.000158	0.000191
in n-heptane	1.59e-05	1.94e-05	2.44e-05	3.02e-05	3.61e-05	4.57e-05	–	6.96e-05	–
in n-hexane	1.46e-05	1.77e-05	2.17e-05	2.75e-05	3.3e-05	4.17e-05	5.15e-05	6.53e-05	8.16e-05
in n-propanol	0.000244	0.000317	0.000396	0.000497	0.000614	0.000797	0.00101	0.00126	0.0016
in toluene	3.01e-05	3.49e-05	4.19e-05	4.98e-05	5.82e-05	7.09e-05	8.5e-05	0.000102	0.000121
